Residues, ends and D or L forms follow the SMILES beside them.
Experiments:
Jurkat T cells = assay: Rosettes protocol: rosette formation between Jurkat T cells and sheep red blood cells; format: cell-based
Procedure: Wash three times the red blood cells (RBC) in RPMI 1640 or RBS or Hanks +antibiotic drugs. Centrifuge for 7 minutes at 3000 rpm.
Put the cells sap in suspension. Count. Bring to 2.10^8 RBC/ml in a solution of RPMI at 20 % of Foetal Calf Serum (FCS) (4 ml formerly adsorbed on 1 ml of RBC sap, 30 minutes on an ice-bath, then centrifuge for 7 minutes at 3000 rpm and recover in sterile conditions).
Take an aliquot of Jurkat T cells in culture. Make a viability with Trypan blue.
Then take the volume of cells required for practical work. Wash the cells three times in RPMI 1640 or PBS or Hanks +antibiotic drugs. Centrifuge for 7 minutes at 900 rpm.
Put the cells sap in suspension. Count. Bring to 2.10^6 Jurkat T cells/ml of solution of RPMI at 20 % of adsorbed FCS.
Inhibiting solution =SDK (2.10^-7 mole).
Peptides to be evaluated are dissolved in RPMI 1640 at the appropriate concentration.
Place, in the tube, 200 μl of the inhibiting solution +100 μl of Jurkat T cells […] in RMPI +FCS 20 %; leave 10 minutes on an ice-bath. Add […] in RPMI +FCS 20 %.
Centrifuge for 5 minutes at 500 rpm. Leave overnight at 4° C.
Set the microscope : ocular :×6 objective :×7
Put carefully back in suspension the cells by tapping. Let it rest for a while.
Add, in the tube, 30 μl of Toluidine blue 1 % (to dye the lymphocytes). Tap gently.
Read 3 Malassex hemocytometer per experimental point.

[1] = test system: Human peripheral mononuclear cells (MNC) stimulated by 0.1% PHA; assay: Stimulation of T lymphocytes proliferation ([3H]thymidine DNA synthesis in PHA-stimulated MNC); format: cell-based; details: for DNA synthesis induced in MNC stimulated by 0.1% PHA: PBL with 0.1% PHA, 3 days; for % stimulation of DNA synthesis in MNC stimulated by 0.1% PHA: versus control (RPMI 1640)
Procedure: Dilute blood at 1/2 in PBS.
On 15 ml of Ficoll-Hypaque, put 35 ml of dilute blood.
Centrifuge 30 minutes at 1800 rpm, at room temperature.
Take the ring corresponding to mononuclear cells (MNC) back with Pasteur pipette.
Wash twice in PBS (centrifuge for 10 minutes at 1800 rpm).
Bring to 2.10^6 cells/ml with RPMI 1640 "complete" medium +10 % SVF.
PHA-M : Reconstitute a 5 ml bottle lyophylized with 5 ml of "complete" medium. Solution of 100 %. Dilute to obtain a 0.4 % solution.
SDK : Tube […] +4.35 ml "complete" medium. Solution 2.3 10^-4 M.
Then dilute successively 450 μl "medium" +50 μl of dilution.
In 96-well sterilized boxes NUNC :
50 μl of PHA 0.4 % (0.1 % final)
Incubate for 3 days at 37° C. in air/CO* atmosphere 95/5. During the last 24 hours, make a puls of [^3 H] Thymidine : 1 μci/well. Pick up the wells on filters and count with a counter.

[2] = test system: B lymphocytes which secrete IgM immunoglobulines; assay: Humoral response in mice to sheep red blood cells (hemolysis plaque technique, Jerne method); format: in vivo, mice of B6D2F1 strain; details: 3 μg/kg IP; for Number of P.F.C./10^6 cells: read on day +4; for % stimulation of humoral response: versus saline
Procedure: 6-to-8 week old mice of B6D2F1 strain are sensitized, on day 0, with 0.2 ml of a sheep red blood cells suspension [10^8 cells ] in a saline solution of Hanks.
The Ser-Asp-Lys and the Pro-Ser-Asp-Lys-Pro peptides (3 μg/kg) were injected in solution physiological serum, by IP route, in 0.2 ml, at the appointed time.
On day +4, animals are killed and the number of B lymphocytes which secrete IgM immunoglobulines are counted by the hemolysis plaque technique (Jerne method).
8 mice / batch. 4 determinations / animal made test : 2 experiments / point.

Row | Compound | % INHIBITION of rosettes (Jurkat T cells; peptide 10^-4 M) [%] | % ROSETTES (Jurkat T cells; peptide 10^-4 M) [%] | % INHIBITION of rosettes (Jurkat T cells; peptide 10^-5 M) [%] | % ROSETTES (Jurkat T cells; peptide 10^-5 M) [%] | % INHIBITION of rosettes (Jurkat T cells; peptide 10^-6 M) [%] | % ROSETTES (Jurkat T cells; peptide 10^-6 M) [%] | % INHIBITION of rosettes (Jurkat T cells; peptide 10^-7 M) [%] | % ROSETTES (Jurkat T cells; peptide 10^-7 M) [%] | % INHIBITION of rosettes (Jurkat T cells; peptide 10^-8 M) [%] | % ROSETTES (Jurkat T cells; peptide 10^-8 M) [%] | % INHIBITION of rosettes (Jurkat T cells; peptide 10^-9 M) [%] | % ROSETTES (Jurkat T cells; peptide 10^-9 M) [%] | % ROSETTES (Jurkat T cells; peptide 10^-10 M) [%] | DNA synthesis induced in MNC stimulated by 0.1% PHA ([1]; peptide 3.10^-5 M) [cpm × 10^3 /2.10^5 cells] | % stimulation of DNA synthesis in MNC stimulated by 0.1% PHA ([1]; peptide 3.10^-5 M) | Number of P.F.C./10^6 cells ([2]; injection at 0 h) [P.F.C./10^6 cells] | % stimulation of humoral response ([2]; injection at 0 h) | Number of P.F.C./10^6 cells ([2]; injection at +24 h) [P.F.C./10^6 cells] | Number of P.F.C./10^6 cells ([2]; injection at +48 h) [P.F.C./10^6 cells] | % stimulation of humoral response ([2]; injection at +48 h) | other results
1 | NCCCC[C@H](NC(=O)[C@H](CC(=O)O)NC(=O)[C@@H](N)CO)C(=O)O [SDK, Ser-Asp-Lys] (H-Ser-Asp-Lys-OH) | -40 | 38 ± 3 | -28 | 45 ± 4 | -22 | 50 ± 2 | -22 | 49 ± 2 | -36 | 40 ± 2 | -32 | 43 ± 1 | 43 ± 3 | 56 ± 5 | +60% | 903 ± 133 | +97% | 459 ± 103 | 673 ± 110 | +65% | % INHIBITION of rosettes (Jurkat T cells; peptide 10^-10 M): -32%; % INHIBITION of rosettes (Jurkat T cells; peptide 10^-11 M): -36%; % ROSETTES (Jurkat T cells; peptide 10^-11 M): 40 ± 1%; % INHIBITION of rosettes (Jurkat T cells; peptide 10^-12 M): -30%; % ROSETTES (Jurkat T cells; peptide 10^-12 M): 44 ± 3%; % INHIBITION of rosettes (Jurkat T cells; peptide 10^-13 M): -19%; % ROSETTES (Jurkat T cells; peptide 10^-13 M): 51 ± 7%; % INHIBITION of rosettes (Jurkat T cells; peptide 10^-14 M): -14%; % ROSETTES (Jurkat T cells; peptide 10^-14 M): 55 ± 2%; % ROSETTES (Jurkat T cells; peptide 10^-15 M): 63 ± 4%; DNA synthesis induced in MNC stimulated by 0.1% PHA ([1]; peptide 3.10^-10 M): 52 ± 5 cpm × 10^3 /2.10^5 cells; % stimulation of DNA synthesis in MNC stimulated by 0.1% PHA ([1]; peptide 3.10^-10 M): +30%; Number of P.F.C./10^6 cells ([2]; injection at +72 h): 1073 ± 348 P.F.C./10^6 cells; % stimulation of humoral response ([2]; injection at +72 h): +134%; Number of P.F.C./10^6 cells ([2]; injection at -24 h): 644 ± 170 P.F.C./10^6 cells; % stimulation of humoral response ([2]; injection at -24 h): +45%
2 | NCCCC[C@H](NC(=O)[C@H](CC(=O)O)NC(=O)[C@H](CO)NC(=O)[C@@H]1CCCN1)C(=O)N1CCC[C@H]1C(=O)O [PSDKP, Pro-Ser-Asp-Lys-Pro] (H-PSDKP-OH) | -37 | 37 ± 7 | -44 | 33 ± 3 | -54 | 27 ± 5 | -24 | 45 ± 6 | -19 | 48 ± 2 | -19 | 48 ± 4 | 52 ± 5 | 54 ± 4 | +42% | 915 ± 140 | +99% | 475 ± 82 | 589 ± 101 | +45% | Number of P.F.C./10^6 cells ([2]; injection at +72 h): 543 ± 112 P.F.C./10^6 cells; Number of P.F.C./10^6 cells ([2]; injection at -24 h): 630 ± 142 P.F.C./10^6 cells; % stimulation of humoral response ([2]; injection at -24 h): +42%

Reference: patent US5112811A, “SDK peptides and therapeutic compositions containing them” (Societe de Conseils de Recherches et d'Applications …, priority 1989, dated 1992)
